{"source": "patent US20250186410A1", "about": "“DUAL INHIBITORS OF TRYPTOPHAN DIOXYGENASES (IDO1 AND TDO) AND THEIR USE IN THERAPY” (ANTIDO THERAPEUTICS INTERNATIONAL SÀRL, priority 2022, published 2025)", "key": {"[1]": {"tested_on": "lung cancer cell line B (cisplatin-sensitive)", "test": "Growth inhibition and cytotoxicity assay (trypan blue), B cells", "format": "cell-based", "conditions": "Homo sapiens", "description": "(§1) In this study 3 different human-derived lung cancer cell lines were exposed to vehicle control (parental cells B, S and A) or long-term incubation with cisplatin (BC, SC and ALC cells). Long-term incubation with cisplatin induced cisplatin-resistance in the BC, SC and ALC cell lines.\n(§2) Cells were seeded in 24-well dishes and treated with various concentrations of inhibitors (i.e. Epacadostat or AT-0174). Briefly, the culture media as well as the trypsinized cells were collected and this mixture was centrifuged at 400×g for 5 min. The supernatant was discarded, re-suspended in 1 mL of Hank's buffer, and assayed for live cells and death cells using trypan blue exclusion method.\n(§3) Data from in vitro experiments were performed from three separate biological replicates which were isolated and analyzed in technical triplicates. Separate measurements using the two-tailed t-test and the results were expressed as mean±standard deviation."}, "[2]": {"tested_on": "lung cancer cell line BC (cisplatin-resistant)", "test": "Growth inhibition and cytotoxicity assay (trypan blue), BC cells", "format": "cell-based", "conditions": "Homo sapiens", "description": "as §1, §2, §3"}}, "data": [{"smiles": "Nc1noc2nc(Cl)c(F)cc12", "note": "[Compound 66, 6-Chloro-5-fluoroisoxazolo[5,4-b]pyridin-3-amine]", "values": [{"measurement": "viability at 12.5 µM", "setting": "[1]; 12.5 μM AT-0174", "value": "84.8 ± 11.3", "unit": "%"}, {"measurement": "viability at 25 µM", "setting": "[1]; 25.0 μM AT-0174", "value": "97.9 ± 2.1", "unit": "%"}, {"measurement": "viability at 50 µM", "setting": "[1]; 50.0 μM AT-0174", "value": "92.2 ± 15.6", "unit": "%"}, {"measurement": "viability at 12.5 µM", "setting": "[2]; 12.5 μM AT-0174", "value": "78.8 ± 6.4", "unit": "%"}, {"measurement": "viability at 25 µM", "setting": "[2]; 25.0 μM AT-0174", "value": "65.3 ± 0.7", "unit": "%"}, {"measurement": "viability at 50 µM", "setting": "[2]; 50.0 μM AT-0174", "value": "59.9 ± 4.9", "unit": "%"}]}]}
